ChEMBL document CHEMBL5223082, “Alkyl-Aryl-Vancomycins: Multimodal Glycopeptides with Weak Dependence on the Bacterial Metabolic State” (J Med Chem, 2021)

Experiments:
[1] = Toxicity in BALB/c mouse assessed as adverse effects at 55.5 mg/kg, ip measured for 4 hrs; format: organism-based; details: in vivo
[2] = test system: Staphylococcus aureus; test: Antibacterial activity against Methicillin-resistant Staphylococcus aureus ATCC 33591 persister cells assessed as log reduction in bacterial colonies at 9 uM incubated for 2 hrs in broth solution followed by incubation on agar plate for 48 hrs by spot plating method; format: functional; details: time 50 hrs

CCCCCCCCCCNC(=O)C[N+](C)(C)CCCNC(=O)c1ccc(CN[C@@]2(C)C[C@H](O[C@H]3[C@H](Oc4c5cc6cc4Oc4ccc(cc4Cl)[C@@H](O)[C@@H](NC(=O)[C@@H](CC(C)C)NC)C(=O)N[C@@H](CC(N)=O)C(=O)N[C@H]6C(=O)N[C@H]4C(=O)N[C@H](C(=O)N[C@H](C(=O)O)c6cc(O)cc(O)c6-c6cc4ccc6O)[C@H](O)c4ccc(c(Cl)c4)O5)O[C@H](CO)[C@@H](O)[C@@H]3O)O[C@@H](C)[C@H]2O)cc1
Activity [1]: Non-Toxic
Activity [2]: 2 log10CFU/ml
